Experimental data: patent US6610744B2, “Methods of treatment with compounds having RARα receptor specific or selective activity” (Allergan, Inc., priority 1995, dated 2003)
In brackets after ≈: the same amount, converted by molar mass.

How the values were obtained:
[1] = Weight loss in rats treated for 3 days; type: in vivo, rat
Description: Weight loss or gain that experimental animals experience upon administration of retinoid compounds is another test of the drug's toxicity, with significant weight loss at relatively low doses indicating a significant toxic side effect of the retinoid. In one experiment, groups of 5 rats were treated with varying doses (administered in corn oil) of a test retinoid for 3 days. The rats were euthanized 24 hours after the last dose.

[2] = tested on: retinal pigment epithelium (RPE) cells; assay: Primary RPE culture proliferation; type: cell-based, human; settings: FIG. 5; 10^−10 to 10^−6 M, six days treatment
Description: Primary cultures of human retinal pigment epithelium (RPE) were established from eyes as previously described, (Campochiaro et al., Invest. Opthal & Vis. Sci. 32:65-72 (1991)). 5×10^4 Cells were plated in 16-mm wells of 24-well multiwell plates in Dulbecco's modified Eagle's medium (DMEM Gibco) containing 10% fetal bovine serum (FBS). Cells were treated with ethanol alone (control), ATRA (10^−10 to 10^−6 M) in ethanol, and Compound 42 (10^−10 to 10^−6 M) in ethanol. Cells were fed with fresh media containing the appropriate concentrations of these compounds every two days for a total of six days treatment. Cells were removed from the plates via treatment with trypsin and the number of cells were counted with an electronic cell counter.

[3] = tested on: AML-193 cells (acute monocytic leukemia); assay: AML 193 cell culture assay (3H-thymidine incorporation); type: cell-based, human; settings: FIG. 2
How it was run: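 t-RA from 1 mM ethanol stock, diluted in medium; ethanol-matched controls, subdued light. AML-193 cells (GM-CSF/insulin-dependent) at 1,000 cells/well incubated 96 h at 37 °C with retinoids, then 6 h with 1 μCi [3H]-thymidine; TCA-precipitated DNA counted by scintillation, mean dpm of triplicates ±SEM.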

[4] = tested on: limb bud mesenchymal cells; assay: Chondrogenesis suppression bioassay (teratogenic potency); type: cell-based; settings: read-out: IC50 (50% inhibition of chondrogenesis); mouse limb bud spot cultures, 96 hours after plating; greater IC50 signifies lesser teratogenecity
Description: High-density “spot” cultures of limb bud mesenchymal cells are used to compare the ability of various concentrations of test drugs to suppress chondrogenic differentiation as a bioassay. Forelimb buds of mouse embryos on day 12 of gestation (54±2 somites) are dissociated in a trypsin-EDTA solution, and the resultant single-cell suspension is plated as 20-μl spots (200,000 cells/spot) on plastic culture dishes. Retinoid concentrations ranging from 0.3 ng/ml to 3 μg/ml (1 nM−10 μM) are added to the culture medium (Eagle's MEM±10% fetal bovine serum, GIBCO) 24 hours after initial plating. Control cultures receive only the vehicle (ethanol, concentration≦1% by vol); Retinoic acid is used as a positive control in another set of cultures.
The cultures are terminated 96 hours after plating, at which time the medium is removed and the cells are fixed for 1 hour in 10% formalin containing 0.5% cetylpyridinium chloride. The cultures are rinsed in acetic acid and stained for 1 hour in 0.5% Alcian blue solution at pH 1.0, differentiated in 3% acetic acid, and then dehydrated in ethanol and scored for chondrogenesis under the microscope. An absence or reduction in the number of cartilage nodules in stained cultures as compared with control cultures is taken as a measure of suppression of chondrogenesis. The number of cartilage nodules stained in the whole spot, mean number of nodules, and standard deviations are calculated for four replicate cultures per treatment. […] The IC50 values are expressed in nanogram per mililiter (ng/ml) units. An IC50 value of greater concentration in this assay signifies lesser teratogenecity.

**Q.** For `CC(C)(C)c1cc(C(=O)Nc2ccc(C(=O)O)c(F)c2)cc(C(C)(C)C)n1` [Compound 42], which mucocutaneous toxicity ([1]; rats, 10, 30 and 90 μmol/kg/day for 3 days) is on record?
**A.** Its mucocutaneous toxicity is “significant mucocutaneous toxicity was not observed”.

**Q.** What about the “weight loss compared to control” value ([1]; rats, daily doses up to 90 μmol/kg/day in corn oil for 3 days, FIG. 6, FIG. 7) of the same compound?
**A.** The value was “virtually no weight loss, as compared to the control, except in a very high dose (90 μmol/kg/day)”.

**Q.** What about the RPE cell proliferation [2] of the same compound?
**A.** Its RPE cell proliferation is “dose dependent decrease in RPE cell proliferation”.

**Q.** What about the “growth of AML 193 malignant cells” value ([3]; 96 hours) of the same compound?
**A.** The value was “inhibited the growth”.

**Q.** And the “growth of AML 193 cells at low concentrations” value ([3]; low concentrations)?
**A.** Its value is “inhibit the malignant cell growth at low concentrations”.

**Q.** And the IC50 [4]?
**A.** The IC50 was 0.065 µg/mL (≈ 0.175 µM).
